Laboratory results: patent publication US5084453A, “1-carboxy-1-vinyloxyimino aminothiazole cephalosporin derivatives” (priority 1988, dated 1992)
In brackets after ≈: the same amount, converted by molar mass. Where two headings read alike, the source gives them in different places.

Columns and labels:
A. calcoaceticus No. 4 = assay: in vitro antibacterial activity, agar plate dilution method; format: cell-based; conditions: Acinetobacter calcoaceticus
Experimental: (§1) Now, the in vitro antibacterial activities of the compounds of the present invention against various microorganisms, were measured by the following agar plate dilution method.
(§2) One platinum loopfull of each test microorganism incubated overnight in Mueller Hinton broth, was inoculated to Mueller Hinton agar (MH agaer). Such culture media containing various antibiotics in various concentrations were prepared. After incubation at 37° C. for 16 hours, the minimum inhibitory concentrations (MIC μg/ml) were measured.

E. cloacae 963 = assay: as above; format: cell-based; conditions: Enterobacter cloacae, 963, 16 h
Experimental: as §1, §2

E. cloacae Nek 39* = assay: as above; format: cell-based; conditions: Enterobacter cloacae
Experimental: as §1, §2

E. coli CSH(RE45)* = assay: as above; format: cell-based; conditions: Escherichia coli; 10^6 CFU/ml; β-Lactamase-producing strain; 37° C., 16 hours; read-out: MIC
Experimental: as §1, §2

E. coli CSH2(RK1)* = assay: as above; format: cell-based; conditions: Escherichia coli, 16 h
Experimental: as §1, §2

E. coli GN5482* = assay: as above; format: cell-based; conditions: Escherichia coli, GN5482, 16 h
Experimental: as §1, §2

E. coli NIHJ JC2 = assay: as above; format: cell-based; conditions: Escherichia coli, NIHJJC2; 10^6 CFU/ml; Mueller Hinton agar, 37° C., 16 hours; read-out: MIC
Experimental: as §1, §2

K. oxytoca GN10650* = assay: as above; format: cell-based; conditions: Klebsiella oxytoca, GN10650, 16 h
Experimental: as §1, §2

K. pneumoniae No. 42* = assay: as above; format: cell-based; conditions: Klebsiella pneumoniae, 16 h
Experimental: as §1, §2

K. pneumoniae PC1-602 = assay: as above; format: cell-based; conditions: Klebsiella pneumoniae
Experimental: as §1, §2

M. morganii GN5407* = assay: as above; format: cell-based; conditions: Morganella morganii, GN5407, 16 h
Experimental: as §1, §2

P. vulgaris HX-19 = assay: as above; format: cell-based; conditions: Proteus vulgaris
Experimental: as §1, §2

P. vulgaris No. 33* = assay: as above; format: cell-based; conditions: Proteus vulgaris
Experimental: as §1, §2

Ps. aeruginosa AK 109 = assay: as above; format: cell-based; conditions: Pseudomonas aeruginosa, AK109; 10^6 CFU/ml; Mueller Hinton agar, 37° C., 16 hours; read-out: MIC
Experimental: as §1, §2

Ps. aeruginosa AKR17 = assay: as above; format: cell-based; conditions: Pseudomonas aeruginosa
Experimental: as §1, §2

Ps. aeruginosa IFO3445 = assay: as above; format: cell-based; conditions: Pseudomonas aeruginosa
Experimental: as §1, §2

Ps. cepacia 23 = assay: as above; format: cell-based
Experimental: as §1, §2

S. aureus 209P NIHJ-JC1 = assay: as above; format: cell-based; conditions: Staphylococcus aureus
Experimental: as §1, §2

S. marcescens IAM 1184 = assay: as above; format: cell-based; conditions: Serratia marcescens, IAM1184, 16 h
Experimental: as §1, §2

S. marcescens No. 16-2* = assay: as above; format: cell-based; conditions: Serratia marcescens
Experimental: as §1, §2

[1] = concentration in blood after subcutaneous administration to mice (paper disk method, Morganella morganii IFO 3843); format: in vivo, mice (ddY, male); conditions: mouse, sc, 20 mg/kg subcutaneous
Experimental: As a representative example, the compound of Example 15 was administered to mice by means of subcutaneous administration, and the concentration in the blood was measured. […] The test compound was dissolved in a physiological sodium chloride solution to obtain a formulation having a concentration of 2 mg/ml. […] Now, Ceftazidime was used as a comparative compound. Further, the antibacterial activities of the sample diluted by plasma to have an appropriate concentration were measured by the paper disk method using Morganella morganii IFO 3843 as the test bacterium.

[2] = PC1602, 10^6 CFU/ml, Mueller Hinton agar, 37° C., 16 hours, read-out: MIC
[3] = 10^6 CFU/ml, β-Lactamase-producing strain, 37° C., 16 hours, read-out: MIC
[4] = Burkholderia cepacia, 23, 10^6 CFU/ml, Mueller Hinton agar, 37° C., 16 hours, read-out: MIC
[5] = 10^6 CFU/ml, Mueller Hinton agar, 37° C., 16 hours, read-out: MIC
[6] = NO.4, 10^6 CFU/ml, Mueller Hinton agar, 37° C., 16 hours, read-out: MIC
[7] = HX19, 10^6 CFU/ml, Mueller Hinton agar, 37° C., 16 hours, read-out: MIC
[8] = AKR17, 10^6 CFU/ml, Mueller Hinton agar, 37° C., 16 hours, read-out: MIC

## C=C(O/N=C(\C(=O)N[C@@H]1C(=O)N2C(C(=O)O)=C(CSc3nc(C(=O)O)c(-c4ccc(O)c(O)c4)s3)CS[C@H]12)c1csc(N)n1)C(=O)O [Example 15, trisodium 78-[2-(2-aminothiazol-4-yl)-2-(1-carboxylato-1-vinyloxyimino)acetamido]-3-[4-carboxylato-5-(3,4-dihydroxyphenyl)thiazol-2-yl]thiomethyl-3-cephem-4-carboxylate (syn-isomer)]
A. calcoaceticus No. 4; NO.4, 16 h
  MIC: 0.39 µg/mL
E. cloacae 963
  MIC: 0.05 µg/mL
E. cloacae Nek 39*; 16 h
  MIC: 0.05 µg/mL
E. coli CSH(RE45)*
  MIC: 0.05 µg/mL
E. coli CSH2(RK1)*
  MIC: 0.0125 µg/mL
E. coli GN5482*
  MIC: 0.39 µg/mL
E. coli NIHJ JC2
  MIC: 0.39 µg/mL
K. oxytoca GN10650*
  MIC: 0.1 µg/mL
K. pneumoniae No. 42*
  MIC: 0.1 µg/mL
K. pneumoniae PC1-602; [2]
  MIC: < 0.006 µg/mL
M. morganii GN5407*
  MIC: 0.025 µg/mL
P. vulgaris HX-19; HX19, 16 h
  MIC: 0.0125 µg/mL
P. vulgaris No. 33*; [3]
  MIC: < 0.006 µg/mL
Ps. aeruginosa AK 109
  MIC: 0.78 µg/mL
Ps. aeruginosa AKR17; AKR17, 16 h
  MIC: 1.56 µg/mL
Ps. aeruginosa IFO3445; IFO3445, 16 h
  MIC: 1.56 µg/mL
Ps. cepacia 23; [4]
  MIC: < 0.006 µg/mL
S. aureus 209P NIHJ-JC1; [5]
  MIC: 25 µg/mL
S. marcescens IAM 1184
  MIC: 0.05 µg/mL
S. marcescens No. 16-2*; [3]
  MIC: 0.78 µg/mL
[1]; 7.5 min
  concentration at 0.125 h: 33800 ng/mL
[1]; 15 min
  concentration at 0.25 h: 45000 ng/mL
[1]; 30 min
  concentration at 0.5 h: 44300 ng/mL
[1]; 60 min
  concentration at 1 h: 21900 ng/mL
[1]; 120 min
  concentration at 2 h: 7100 ng/mL
[1]; 240 min
  concentration at 4 h: 7200 ng/mL

## C=C(O/N=C(\C(=O)N[C@@H]1C(=O)N2C(C(=O)O)=C(CSc3nnnn3CC(=O)O)CS[C@H]12)c1csc(N)n1)C(=O)O [Example 20, trisodium 7β-[2-(2-aminothiazol-4-yl)-2-(1-carboxylato-1-vinyloxyimino)acetamido]-3-(1-carboxylatomethyl-1H-tetrazol-5-yl)thiomethyl-3-cephem-4-carboxylate (syn-isomer)]
A. calcoaceticus No. 4; [6]
  MIC: 100 µg/mL
E. cloacae 963
  MIC: 0.39 µg/mL
E. cloacae Nek 39*; [3]
  MIC: 3.12 µg/mL
E. coli CSH(RE45)*
  MIC: 0.78 µg/mL
E. coli CSH2(RK1)*
  MIC: 0.2 µg/mL
E. coli GN5482*
  MIC: 1.56 µg/mL
E. coli NIHJ JC2
  MIC: 0.39 µg/mL
K. oxytoca GN10650*
  MIC: 0.39 µg/mL
K. pneumoniae No. 42*
  MIC: 0.78 µg/mL
K. pneumoniae PC1-602; PC1602, 16 h
  MIC: 0.1 µg/mL
M. morganii GN5407*
  MIC: 0.05 µg/mL
P. vulgaris HX-19; [7]
  MIC: < 0.006 µg/mL
P. vulgaris No. 33*; [3]
  MIC: < 0.006 µg/mL
Ps. aeruginosa AK 109
  MIC: 12.5 µg/mL
Ps. aeruginosa AKR17; [8]
  MIC: > 100 µg/mL
Ps. aeruginosa IFO3445; IFO3445, 16 h
  MIC: 6.25 µg/mL
Ps. cepacia 23; [4]
  MIC: 3.12 µg/mL
S. aureus 209P NIHJ-JC1; [5]
  MIC: 25 µg/mL
S. marcescens IAM 1184
  MIC: 0.05 µg/mL
S. marcescens No. 16-2*; [3]
  MIC: 3.12 µg/mL

## CO/N=C(\C(=O)N[C@@H]1C(=O)N2C(C(=O)O)=C(COC(C)=O)CS[C@H]12)c1csc(N)n1 [Cefotaxime, reference compound]
A. calcoaceticus No. 4; [6]
  MIC: 25 µg/mL (≈ 54.9 µM)
E. cloacae 963
  MIC: 0.05 µg/mL (≈ 0.11 µM)
E. cloacae Nek 39*; 16 h
  MIC: 1.56 µg/mL (≈ 3.43 µM)
E. coli CSH(RE45)*
  MIC: 0.1 µg/mL (≈ 0.22 µM)
E. coli CSH2(RK1)*
  MIC: 0.0125 µg/mL (≈ 0.0274 µM)
E. coli GN5482*
  MIC: 0.39 µg/mL (≈ 0.856 µM)
E. coli NIHJ JC2
  MIC: 0.05 µg/mL (≈ 0.11 µM)
K. oxytoca GN10650*
  MIC: 0.39 µg/mL (≈ 0.856 µM)
K. pneumoniae No. 42*
  MIC: 0.05 µg/mL (≈ 0.11 µM)
K. pneumoniae PC1-602; [2]
  MIC: < 0.006 µg/mL
M. morganii GN5407*
  MIC: 0.05 µg/mL (≈ 0.11 µM)
P. vulgaris HX-19; [7]
  MIC: < 0.006 µg/mL
P. vulgaris No. 33*; 16 h
  MIC: 0.025 µg/mL (≈ 0.0549 µM)
Ps. aeruginosa AK 109
  MIC: 12.5 µg/mL (≈ 27.4 µM)
Ps. aeruginosa AKR17; [8]
  MIC: > 100 µg/mL
Ps. aeruginosa IFO3445; IFO3445, 10^6 CFU/ml, Mueller Hinton agar, 37° C., 16 hours, read-out: MIC
  MIC: 25 µg/mL (≈ 54.9 µM)
Ps. cepacia 23; Burkholderia cepacia, 23, 16 h
  MIC: 6.25 µg/mL (≈ 13.7 µM)
S. aureus 209P NIHJ-JC1; 16 h
  MIC: 1.56 µg/mL (≈ 3.43 µM)
S. marcescens IAM 1184
  MIC: 0.0125 µg/mL (≈ 0.0274 µM)
S. marcescens No. 16-2*; 16 h
  MIC: 6.25 µg/mL (≈ 13.7 µM)
